Results: patent publication US20260070922A1, “PYRAZOLE AND IMIDAZOLE DERIVATIVES AS DUAL OREXIN AND KAPPA-OPIOID RECEPTORS MODULATORS COMPOSITION, METHODS FOR TREATING NEUROLOGICAL AND PSYCHIATRIC DISORDERS” (HAGER BIOSCIENCES, LLC, priority 2022, published 2026)

Tests used:
[1] = molecular target: T1, Orexin type 1 (OX1R) receptor (Homo sapiens, UniProt O43613); assay: In vitro orexin antagonism assay: intracellular calcium measurement (FLIPR), orexin-A 3 nM as agonist; format: cell-based; details: for IC50: first value of IC50/Kb cell; for Kb: second value of IC50/Kb cell; for inhibition at 1 µM: read-out: OX1R, % Inh. @ 1 uM
T1 construct: expressed in transfected cells; host or cells: CHO cells (G418 selection)
T1 sequence (O43613 1-425): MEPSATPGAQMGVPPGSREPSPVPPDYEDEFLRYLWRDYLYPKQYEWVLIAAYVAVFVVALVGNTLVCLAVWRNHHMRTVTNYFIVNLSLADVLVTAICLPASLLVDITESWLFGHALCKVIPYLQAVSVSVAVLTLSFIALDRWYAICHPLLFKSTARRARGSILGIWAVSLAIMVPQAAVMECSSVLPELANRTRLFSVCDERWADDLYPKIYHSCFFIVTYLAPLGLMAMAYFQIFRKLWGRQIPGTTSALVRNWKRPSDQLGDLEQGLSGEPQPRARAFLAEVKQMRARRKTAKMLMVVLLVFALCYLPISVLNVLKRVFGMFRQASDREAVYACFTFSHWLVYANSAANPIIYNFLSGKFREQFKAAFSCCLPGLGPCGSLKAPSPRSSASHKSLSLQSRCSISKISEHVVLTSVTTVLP
Description: (§1) In Vitro Orexin Antagonism Measurement Assay: Intracellular Calcium Measurements:
(§2) Chinese hamster ovary (CHO) cells expressing the human […] and the human orexin-2 receptor, respectively, are grown in culture medium (Ham F-12 with L-Glutamine) containing 300 μg/mL G418, 100 U/mL penicillin, 100 μg/mL streptomycin and 10% heat inactivated fetal calf serum (FCS). The cells are seeded at 20,000 cells/well into 384-well black clear bottom sterile plates (Greiner). The seeded plates are incubated overnight at 37° C. in 5% 002. Human orexin-A as an agonist is prepared as 1 mM stock solution in MeOH: water (1:1), diluted in HBSS containing 0.1% bovine serum albumin (BSA), NaHCO3: 0.375 g/L and 20 mM HEPES for use in the assay at a final concentration of 3 nM.
(§3) Antagonists are prepared as 10 mM stock solution in DMSO, then diluted in 384-well plates using DMSO followed by a transfer of the dilutions into in HBSS containing 0.1% bovine serum albumin (BSA), NaHCO3: 0.375 g/L and 20 mM HEPES. On the day of the assay, 50 μL of staining buffer (HBSS containing 1% FCS, 20 mM HEPES, NaHCO3: 0.375 g/L, 5 mM probenecid (Sigma) and 3 μM of the fluorescent calcium indicator fluo-4 AM (1 mM stock solution in DMSO, containing 10% pluronic) is added to each well. The 384-well cell-plates are incubated for 50 min at 37° C. in 5% CO2 followed by equilibration at RT for 30 min before measurement.
(§4) Within the Fluorescent Imaging Plate Reader (FLIPR Tetra, Molecular Devices), antagonists are added to the plate in a volume of 10 μL/well, incubated for 120 min and finally 10 μL/well of agonist is added. Fluorescence is measured for each well at 1 second intervals, and the height of each fluorescence peak is compared to the height of the fluorescence peak induced by 3 nM orexin-A with vehicle in place of antagonist. The IC50 value (the concentration of compound needed to inhibit 50% of the agonistic response) is determined and may be normalized using the obtained IC50 value of an on-plate reference compound. Optimized conditions were achieved by adjustment of pipetting speed and cell splitting regime. The calculated IC50values may fluctuate depending on the daily cellular assay performance. Fluctuations of this kind are known to those skilled in the art.

[2] = molecular target: T2, human orexin-2 receptor (OX2R) (Homo sapiens, UniProt O43614); assay: as above; format: cell-based; details: for inhibition at 1 µM: read-out: OX2R, % Inh. @ 1 uM; for IC50: first value of IC50/Kb cell; for Kb: second value of IC50/Kb cell
T2 construct: expressed in transfected cells; host or cells: CHO cells (G418 selection)
T2 sequence (O43614 1-444): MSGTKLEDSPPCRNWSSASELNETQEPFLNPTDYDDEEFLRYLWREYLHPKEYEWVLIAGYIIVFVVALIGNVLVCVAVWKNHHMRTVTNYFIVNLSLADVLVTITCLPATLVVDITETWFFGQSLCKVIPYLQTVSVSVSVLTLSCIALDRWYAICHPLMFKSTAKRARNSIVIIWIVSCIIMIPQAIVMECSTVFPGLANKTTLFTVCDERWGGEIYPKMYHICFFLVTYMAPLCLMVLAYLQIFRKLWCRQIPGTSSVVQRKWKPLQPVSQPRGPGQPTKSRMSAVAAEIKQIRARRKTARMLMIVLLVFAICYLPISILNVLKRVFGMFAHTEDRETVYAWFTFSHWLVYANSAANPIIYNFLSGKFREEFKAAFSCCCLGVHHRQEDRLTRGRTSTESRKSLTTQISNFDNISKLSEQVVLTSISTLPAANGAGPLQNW
Description: Antagonistic activities on both orexin receptors have been measured for each example compound using the following procedure:
as §1, §2, §3
as §4, with “art. In the case where IC50values have been determined several times for the same compound, the geometric mean has been given.” for “art.”

SMILES | IC50 [1] [nM] | Kb [1] [nM] | inhibition at 1 µM [1] [%] | inhibition at 1 µM [2] [%] | IC50 [2] [nM] | Kb [2] [nM]
O=C(c1c(-c2ccccc2)nn2c1COCC2)N1CCC[C@H]1CNc1ccc(C(F)(F)F)cn1 [Example 2] | 120 |  |  |  |  | 
CCc1cnc(NC[C@@H]2[C@H](C)CCCN2C(=O)c2c(-c3ccccc3)nn3c2COCC3)nc1 [Example 5] | 140 |  |  |  |  | 
C[C@@H]1CCCN(C(=O)c2c(-c3ccccc3)nn3ccccc23)[C@@H]1CNc1ccc(C(F)(F)F)cn1 [Example 6] |  | 2 |  |  |  | 
CCc1cnc(NC[C@@H]2CCCN2C(=O)c2c(-c3ccccc3)nn3ccccc23)nc1 [Example 15] | 180 | 38 |  |  |  | 
O=C(c1c(-c2ccccc2)nc2ccccn12)N1CCC[C@H]1COc1ccc(C(F)(F)F)cn1 [Example 18] | 290 |  |  |  |  | 
C[C@@H]1CCCN(C(=O)c2c(-c3ccccc3)nn3ccccc23)[C@@H]1CNc1ncc(F)cn1 [Example 22] | 10 | 2 | 82.2 | -3 |  | 
O=C(c1c(-c2ccccc2)nn2ccccc12)N1CCC[C@H]1CNc1ncc(F)cn1 [Example 23] |  |  | 23 | 13.5 |  | 
O=C(c1c(-c2ccccc2)nn2ccccc12)N1CCCC[C@H]1CNc1ccc(C(F)(F)F)cn1 [Example 25] | 17 | 4 | 99.8 | 72 | 74 | 10
O=C(c1c(-c2ccccc2)nc2ccccn12)N1CCCC[C@H]1CNc1ccc(C(F)(F)F)cn1 [Example 26] | 14 | 3 | 99.5 | 39.4 |  | 
O=C(c1c(-c2ccccc2)nn2c1COCC2)N1CCCC[C@H]1CNc1ccc(C(F)(F)F)cn1 [Example 27] | 9 | 2 | 99 | 50.4 |  | 
O=C(c1nn2ccccc2c1-c1ccccc1)N1CCC[C@H]1COc1ccc(C(F)(F)F)cn1 [Example 28] | 4 | 1 | 98.4 | 52.5 |  | 
O=C(c1nn2ccccc2c1-c1ccccc1)N1CCC[C@H]1CNc1ccc(C(F)(F)F)cn1 [Example 29] | 5 | 1 | 99.5 | 84.1 | 35 | 5
O=C(c1c(-c2ccccc2)nn2ccccc12)N1CCC[C@H]1CNc1ccc(F)cn1 [Example 30] |  |  | 32.5 | 14.8 |  | 
O=C(c1c(-c2ccccc2)nc2ncccn12)N1CCC[C@H]1CNc1ccc(F)cn1 [Example 31] |  |  | 4.7 | -3.4 |  | 
O=C(c1c(-c2ccccc2)nc2ncccn12)N1CCC[C@H]1CNc1ccc(C(F)(F)F)cn1 [Example 32] |  |  | 19.7 | 3.6 |  | 
O=C(c1c(-c2ccccc2)nc2ccccn12)N1CCC[C@H]1CNc1ccc(F)cn1 [Example 33] |  |  | 4.8 | 0.7 |  | 
O=C(c1c(-c2ccccc2)nc2ncccn12)N1CCC[C@H]1Cn1ccc(-c2ccccc2)n1 [Example 35] |  |  | 54.8 | 23.7 |  | 

SMILES | IC50 [1] [nM] | Kb [1] [nM] | inhibition at 1 µM [1] [%] | inhibition at 1 µM [2] [%] | IC50 [2] [nM] | Kb [2] [nM]
O=C(c1c(-c2ccccc2)nc2cnccn12)N1CCC[C@H]1CNc1ccc(C(F)(F)F)cn1 [Example 36] |  |  | 53.7 | 14.7 |  | 
O=C(c1c(-c2ccccc2)nn2ccccc12)N1CCC[C@H]1COc1ccc(Br)nc1 [Example 37] |  |  | 25.4 | 10.4 |  | 
O=C(c1c(-c2ccccc2)nc2ccccn12)N1CCC[C@H]1COc1ccc(Br)nc1 [Example 38] |  |  | 8.2 | -6.1 |  | 
O=C(c1c(-c2ccccc2)nc2cnccn12)N1CCC[C@H]1COc1ccc(C(F)(F)F)nc1 [Example 39] |  |  | 39.4 | 7.9 |  | 
O=C(c1c(-c2ccc(F)cc2)nn2ccccc12)N1CCC[C@H]1CNc1ccc(F)cn1 [Example 41] |  |  | 45.6 | 3.2 |  | 
O=C(c1c(-c2ccc(F)cc2)nn2ccccc12)N1CCC[C@H]1CNc1ccc(C(F)(F)F)cn1 [Example 42] | 12 | 3 | 98.2 | 39.4 |  | 
O=C(c1c(-c2ccc(F)cc2)nn2ccccc12)N1CCC[C@H]1COc1ccc(C(F)(F)F)cn1 [Example 43] | 9 | 2 | 93.1 | 28.3 |  | 
O=C(c1c(-c2ccccc2)nc2ccccn12)N1CCCC[C@H]1COc1ccc(C(F)(F)F)cn1 [Example 45] | 4 | 0.9 | 98.7 | 38.8 |  | 
O=C(c1c(-c2ccccc2)nc2ncccn12)N1CCCC[C@H]1COc1ccc(C(F)(F)F)cn1 [Example 47] |  |  | 59.5 | 1.2 |  | 
O=C(c1c(-c2ccccc2)nc2ncccn12)N1CCC[C@H]1COc1ccc(C(F)(F)F)cn1 [Example 48] |  |  | 18.9 | -1.1 |  | 
O=C(c1c(-c2ccccc2)nc2ccc(F)cn12)N1CCC[C@H]1COc1ccc(C(F)(F)F)cn1 [Example 51] | 80 | 17 | 88.1 | 46.5 |  | 
O=C(c1c(-c2ccccc2)nc2cc(F)ccn12)N1CCC[C@H]1COc1ccc(C(F)(F)F)cn1 [Example 52] | 327 | 69 | 79.2 | 43.3 |  | 
O=C(c1c(-c2ccc(F)cc2)nn2c1COCC2)N1CCC[C@H]1Cn1ccc(-c2ccc(F)cc2)n1 [Example 54] | 122 | 26 | 98 | 45.1 |  | 
O=C(c1c(-c2ccccc2F)nn2c1COCC2)N1CCC[C@H]1Cn1ccc(-c2ccccn2)n1 [Example 70] | 120 | 25 | 60 | 35 |  | 
O=C(c1c(-c2ccccc2F)nn2c1COCC2)N1CCC[C@H]1Cn1cc(-c2ccccn2)cn1 [Example 71] |  |  | 14 | 40 |  | 
O=C(c1c(-c2ccccc2F)nn2c1COCC2)N1CCC[C@H]1Cn1cc(-c2ccccc2)cn1 [Example 72] | 620 | 13 | 64 | 45 |  | 
O=C(c1c(-c2ccccc2)nc2ccc(F)cn12)N1CCC[C@H]1Cn1cc(-c2ccccn2)cn1 [Example 74] |  |  | 40 | 45 |  | 
